From article PMC7719162, “Positioning of an unprecedented spiro[5.5]undeca ring system into kinase inhibitor space” (Scientific Reports, 2020)
Where two headings read alike, the source gives them in different places.

What was measured:
JNK1 = molecular target: T1, JNK1 (Homo sapiens, UniProt P45983); settings: cited from earlier work
T1 construct: purchased Reaction Biology Corp

CDK1/cyclin B = molecular target: T2, CDK1/cyclin B (Homo sapiens, UniProt P06493); settings: cited from earlier work
T2 construct: purchased Reaction Biology Corp

ROCK1 = molecular target: T3, ROCK1 (Homo sapiens, UniProt Q13464); settings: cited from earlier work
T3 construct: purchased Reaction Biology Corp

ARK5/NUAK1 [1] = molecular target: T4, ARK5/NUAK1 (Homo sapiens, UniProt O60285); settings: cited from earlier work
T4 construct: purchased Reaction Biology Corp
T4 sequence (O60285 1-661): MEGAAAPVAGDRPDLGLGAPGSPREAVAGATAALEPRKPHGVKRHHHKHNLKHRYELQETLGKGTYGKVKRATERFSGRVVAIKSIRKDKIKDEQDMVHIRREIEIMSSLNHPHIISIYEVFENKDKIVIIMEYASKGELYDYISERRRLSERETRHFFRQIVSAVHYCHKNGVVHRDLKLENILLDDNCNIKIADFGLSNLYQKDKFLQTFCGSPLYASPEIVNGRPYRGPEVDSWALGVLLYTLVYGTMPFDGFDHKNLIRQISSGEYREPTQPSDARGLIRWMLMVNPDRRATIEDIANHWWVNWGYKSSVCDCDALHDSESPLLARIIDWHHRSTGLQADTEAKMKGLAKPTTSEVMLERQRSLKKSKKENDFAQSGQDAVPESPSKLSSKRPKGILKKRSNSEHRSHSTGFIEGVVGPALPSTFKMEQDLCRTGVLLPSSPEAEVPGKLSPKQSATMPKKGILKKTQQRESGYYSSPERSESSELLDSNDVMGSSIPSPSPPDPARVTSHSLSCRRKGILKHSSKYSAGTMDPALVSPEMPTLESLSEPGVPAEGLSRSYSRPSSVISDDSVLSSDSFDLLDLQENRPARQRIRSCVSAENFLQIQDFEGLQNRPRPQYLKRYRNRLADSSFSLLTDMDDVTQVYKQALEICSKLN

TRKA (G667C) = molecular target: T5, TRKA (G667C) (Homo sapiens, UniProt P04629, G667C); assay: Kinase panel assay (radiolabelled); type: biochemical; settings: 30 μM compound, ATP 10 μM, duplicates Data 1/Data 2
T5 construct: purchased Reaction Biology Corp
T5 sequence (P04629 33-796 G667C): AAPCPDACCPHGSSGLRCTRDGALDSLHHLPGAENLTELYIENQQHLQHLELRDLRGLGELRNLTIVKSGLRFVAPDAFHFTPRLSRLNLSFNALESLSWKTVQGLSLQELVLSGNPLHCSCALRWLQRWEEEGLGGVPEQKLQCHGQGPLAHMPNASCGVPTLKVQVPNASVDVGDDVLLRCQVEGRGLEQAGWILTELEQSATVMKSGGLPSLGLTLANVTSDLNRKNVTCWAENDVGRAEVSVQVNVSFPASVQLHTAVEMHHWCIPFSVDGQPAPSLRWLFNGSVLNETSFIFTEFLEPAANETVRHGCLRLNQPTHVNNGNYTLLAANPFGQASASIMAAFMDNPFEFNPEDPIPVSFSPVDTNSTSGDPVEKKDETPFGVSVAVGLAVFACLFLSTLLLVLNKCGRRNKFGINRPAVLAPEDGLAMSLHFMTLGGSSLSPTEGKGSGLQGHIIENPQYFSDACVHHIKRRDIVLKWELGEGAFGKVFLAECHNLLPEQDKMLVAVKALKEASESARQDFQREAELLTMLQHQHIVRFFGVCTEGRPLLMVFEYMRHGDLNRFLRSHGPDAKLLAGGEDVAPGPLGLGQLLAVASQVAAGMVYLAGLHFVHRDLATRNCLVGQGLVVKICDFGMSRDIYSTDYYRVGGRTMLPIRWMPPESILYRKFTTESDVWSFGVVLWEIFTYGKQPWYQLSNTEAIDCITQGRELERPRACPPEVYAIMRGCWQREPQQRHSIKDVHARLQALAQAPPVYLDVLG

PI3K (p110a(E545K)/p85a) = molecular target: T6, PI3K (p110a(E545K)/p85a) (Homo sapiens, UniProt P42336, E545K); assay: Kinase panel assay (lipid kinase); type: biochemical; settings: 30 μM compound, ATP 10 μM, duplicates Data 1/Data 2
T6 construct: purchased Reaction Biology Corp
T6 sequence (P42336 whole entry E545K): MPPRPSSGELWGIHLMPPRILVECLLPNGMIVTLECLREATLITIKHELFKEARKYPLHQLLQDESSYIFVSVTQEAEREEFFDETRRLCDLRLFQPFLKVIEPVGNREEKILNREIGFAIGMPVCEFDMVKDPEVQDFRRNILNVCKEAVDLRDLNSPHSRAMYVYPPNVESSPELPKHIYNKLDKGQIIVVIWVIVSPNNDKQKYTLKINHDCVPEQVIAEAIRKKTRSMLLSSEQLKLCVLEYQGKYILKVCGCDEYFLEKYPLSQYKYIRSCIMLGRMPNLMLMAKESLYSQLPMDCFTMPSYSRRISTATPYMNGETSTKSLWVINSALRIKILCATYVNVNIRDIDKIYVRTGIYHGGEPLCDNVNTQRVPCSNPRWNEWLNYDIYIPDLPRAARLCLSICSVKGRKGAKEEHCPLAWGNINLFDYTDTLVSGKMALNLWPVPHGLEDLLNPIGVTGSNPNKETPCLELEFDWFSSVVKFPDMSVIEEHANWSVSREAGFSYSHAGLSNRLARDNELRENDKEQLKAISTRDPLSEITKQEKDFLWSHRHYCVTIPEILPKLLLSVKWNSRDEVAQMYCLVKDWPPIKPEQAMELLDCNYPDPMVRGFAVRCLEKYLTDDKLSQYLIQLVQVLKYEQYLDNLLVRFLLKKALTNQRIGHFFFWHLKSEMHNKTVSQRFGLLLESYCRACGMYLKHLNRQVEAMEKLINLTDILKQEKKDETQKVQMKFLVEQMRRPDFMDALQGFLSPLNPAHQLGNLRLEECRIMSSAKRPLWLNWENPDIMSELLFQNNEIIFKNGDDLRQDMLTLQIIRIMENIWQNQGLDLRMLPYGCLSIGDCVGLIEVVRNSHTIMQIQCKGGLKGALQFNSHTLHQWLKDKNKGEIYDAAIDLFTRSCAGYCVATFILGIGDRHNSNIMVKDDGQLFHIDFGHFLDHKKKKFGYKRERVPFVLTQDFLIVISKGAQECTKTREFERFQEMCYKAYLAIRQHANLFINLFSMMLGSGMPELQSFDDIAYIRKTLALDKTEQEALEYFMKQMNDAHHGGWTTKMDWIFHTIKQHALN
T6 sequence (P27986 whole entry partner): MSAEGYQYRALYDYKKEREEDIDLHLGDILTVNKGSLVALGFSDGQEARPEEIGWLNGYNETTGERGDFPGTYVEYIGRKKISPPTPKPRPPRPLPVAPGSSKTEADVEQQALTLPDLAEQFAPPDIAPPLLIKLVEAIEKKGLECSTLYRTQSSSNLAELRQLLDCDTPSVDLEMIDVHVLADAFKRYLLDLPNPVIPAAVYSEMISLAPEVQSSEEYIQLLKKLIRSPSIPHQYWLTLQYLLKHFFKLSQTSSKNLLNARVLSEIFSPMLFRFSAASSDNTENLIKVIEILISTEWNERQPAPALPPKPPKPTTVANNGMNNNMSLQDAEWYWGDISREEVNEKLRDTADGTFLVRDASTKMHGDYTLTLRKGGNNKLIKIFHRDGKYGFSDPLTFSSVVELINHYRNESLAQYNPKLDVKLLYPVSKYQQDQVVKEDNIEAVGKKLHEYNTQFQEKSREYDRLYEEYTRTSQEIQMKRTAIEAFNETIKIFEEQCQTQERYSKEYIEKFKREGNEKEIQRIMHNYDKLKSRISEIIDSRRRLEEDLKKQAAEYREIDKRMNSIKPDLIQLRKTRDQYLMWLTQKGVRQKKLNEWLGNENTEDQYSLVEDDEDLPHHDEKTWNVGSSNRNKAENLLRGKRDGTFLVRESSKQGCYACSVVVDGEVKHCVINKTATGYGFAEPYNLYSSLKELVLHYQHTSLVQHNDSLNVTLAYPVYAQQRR

ARK5/NUAK1 [2] = molecular target: T4, ARK5/NUAK1; assay: Kinase panel assay (radiolabelled); type: biochemical; settings: ATP 10 μM
PI3KC2A = molecular target: T7, PI3KC2A (Homo sapiens, UniProt O00443); assay: Kinase panel assay (lipid kinase); type: biochemical; settings: 30 μM compound, ATP 10 μM, duplicates Data 1/Data 2
T7 construct: purchased Reaction Biology Corp
Experimental: (§1) Every inhibitory activity of tested compounds was measured by radiolabelled method of Reaction Biology Corp). The radiolabelled ATP ([γ-^33P] ATP) replaced a substrate with ^33P-phosphorylated substrate so that the activity of a kinase was measured from the radiolabelled phosphorylated substrate. Kinase panel assay was tested at 30 μM testing compounds with an ATP concentration of 10 μM and a substrate concentration of 10 μM. % Residual activity against GSK3β was measured at 10 uM compounds 1 and 2. […] Curve fits of control compounds were performed where the enzyme activities at the highest concentration of compounds were less than 65%. The concentration of DMSO was controlled and raw data, % kinase activity was calculated relative to DMSO controls.

PIP5K1A = molecular target: T8, PIP5K1A (Homo sapiens, UniProt Q99755); assay: Kinase panel assay (lipid kinase); type: biochemical; settings: 30 μM compound, ATP 10 μM, duplicates Data 1/Data 2
T8 construct: purchased Reaction Biology Corp
T8 sequence (Q99755 whole entry): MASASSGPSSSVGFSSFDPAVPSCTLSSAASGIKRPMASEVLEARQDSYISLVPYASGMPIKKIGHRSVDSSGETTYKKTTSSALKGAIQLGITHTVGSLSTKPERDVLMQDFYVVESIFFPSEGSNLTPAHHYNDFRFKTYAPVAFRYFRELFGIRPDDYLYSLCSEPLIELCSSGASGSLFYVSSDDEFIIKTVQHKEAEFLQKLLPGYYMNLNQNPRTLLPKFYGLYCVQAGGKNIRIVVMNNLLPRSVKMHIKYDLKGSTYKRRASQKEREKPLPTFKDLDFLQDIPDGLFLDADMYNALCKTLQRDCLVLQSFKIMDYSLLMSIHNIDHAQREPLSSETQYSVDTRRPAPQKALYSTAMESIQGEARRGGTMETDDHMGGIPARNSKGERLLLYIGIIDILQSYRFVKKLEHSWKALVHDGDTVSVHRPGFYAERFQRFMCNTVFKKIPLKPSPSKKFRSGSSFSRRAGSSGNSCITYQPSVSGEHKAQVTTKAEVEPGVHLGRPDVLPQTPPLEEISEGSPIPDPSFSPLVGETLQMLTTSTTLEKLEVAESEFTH
Experimental: as §1

PI3KC3 = molecular target: T9, PI3KC3 (Homo sapiens, UniProt Q8NEB9); assay: Kinase panel assay (lipid kinase); type: biochemical; settings: 30 μM compound, ATP 10 μM, duplicates Data 1/Data 2
T9 construct: purchased Reaction Biology Corp
T9 sequence (Q8NEB9 whole entry): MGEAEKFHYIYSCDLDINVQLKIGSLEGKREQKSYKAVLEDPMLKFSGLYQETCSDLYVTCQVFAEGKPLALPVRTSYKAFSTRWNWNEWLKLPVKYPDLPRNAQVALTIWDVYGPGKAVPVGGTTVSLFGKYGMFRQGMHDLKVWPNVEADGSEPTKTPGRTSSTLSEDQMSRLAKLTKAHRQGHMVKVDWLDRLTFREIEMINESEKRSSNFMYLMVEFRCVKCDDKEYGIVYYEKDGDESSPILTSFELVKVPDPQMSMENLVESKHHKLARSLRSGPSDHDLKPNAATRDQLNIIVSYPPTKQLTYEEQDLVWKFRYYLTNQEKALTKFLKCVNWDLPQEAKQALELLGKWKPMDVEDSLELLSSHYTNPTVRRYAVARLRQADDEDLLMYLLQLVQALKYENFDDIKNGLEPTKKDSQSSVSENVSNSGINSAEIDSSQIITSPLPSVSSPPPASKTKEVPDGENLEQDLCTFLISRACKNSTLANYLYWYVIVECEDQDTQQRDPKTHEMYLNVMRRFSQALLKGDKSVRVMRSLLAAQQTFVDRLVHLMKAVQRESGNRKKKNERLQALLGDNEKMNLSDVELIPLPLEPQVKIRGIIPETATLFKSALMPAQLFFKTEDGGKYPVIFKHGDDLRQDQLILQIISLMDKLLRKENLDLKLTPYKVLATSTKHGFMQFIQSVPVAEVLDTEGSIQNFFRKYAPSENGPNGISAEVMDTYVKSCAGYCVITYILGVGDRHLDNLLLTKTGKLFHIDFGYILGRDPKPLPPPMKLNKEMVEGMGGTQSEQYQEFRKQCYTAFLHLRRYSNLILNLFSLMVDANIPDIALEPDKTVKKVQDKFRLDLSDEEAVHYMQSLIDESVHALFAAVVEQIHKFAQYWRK
Experimental: as §1

PI4K2A = molecular target: T10, PI4K2A (Homo sapiens, UniProt Q9BTU6); assay: Kinase panel assay (lipid kinase); type: biochemical; settings: 30 μM compound, ATP 10 μM, duplicates Data 1/Data 2
T10 construct: purchased Reaction Biology Corp
Experimental: as §1

PIP5K1C = molecular target: T11, PIP5K1C (Homo sapiens, UniProt O60331); assay: Kinase panel assay (lipid kinase); type: biochemical; settings: 30 μM compound, ATP 10 μM, duplicates Data 1/Data 2
T11 construct: purchased Reaction Biology Corp
T11 sequence (O60331 whole entry): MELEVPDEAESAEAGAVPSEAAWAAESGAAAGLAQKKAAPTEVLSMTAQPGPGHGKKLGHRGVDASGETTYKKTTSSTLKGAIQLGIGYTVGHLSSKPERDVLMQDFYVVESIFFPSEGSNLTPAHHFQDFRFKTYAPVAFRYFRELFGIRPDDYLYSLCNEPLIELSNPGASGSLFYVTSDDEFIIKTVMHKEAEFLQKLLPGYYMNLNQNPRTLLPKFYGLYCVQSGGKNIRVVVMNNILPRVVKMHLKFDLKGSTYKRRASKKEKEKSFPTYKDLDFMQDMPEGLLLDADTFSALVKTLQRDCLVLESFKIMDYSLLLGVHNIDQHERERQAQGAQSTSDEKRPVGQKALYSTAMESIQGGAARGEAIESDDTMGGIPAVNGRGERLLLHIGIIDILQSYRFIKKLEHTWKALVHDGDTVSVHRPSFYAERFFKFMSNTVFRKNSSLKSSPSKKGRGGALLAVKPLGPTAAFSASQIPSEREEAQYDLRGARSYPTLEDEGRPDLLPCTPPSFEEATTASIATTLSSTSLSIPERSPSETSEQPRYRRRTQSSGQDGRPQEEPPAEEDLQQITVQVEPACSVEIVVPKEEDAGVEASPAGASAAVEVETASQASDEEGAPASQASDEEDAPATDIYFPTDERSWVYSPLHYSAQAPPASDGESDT
Experimental: as §1

AMPK(A1/B1/G3) [3] = molecular target: T12, AMPK(A1/B1/G3) (Homo sapiens, UniProt Q13131+Q9UGI9+Q9Y478); assay: Kinase panel assay (radiolabelled); type: biochemical; settings: 30 μM compound, ATP 10 μM; duplicates Data 1/Data 2; read-out: % Enzyme Activity (relative to DMSO controls)
T12 construct: purchased Reaction Biology Corp

AMPK(A1/B1/G3) [4] = molecular target: T13, AMPK(A1/B1/G3) (Homo sapiens, UniProt Q13131); assay: Kinase panel assay (radiolabelled); type: biochemical; settings: 30 μM compound, ATP 10 μM; duplicates Data 1/Data 2
T13 construct: purchased Reaction Biology Corp

iNOS = assay: Western blot of iNOS in LPS-induced BV-2 cells; type: cell-based, murine
Experimental: Western blot analysis was performed to see the protein expression of the iNOS and COX-2 in the BV2 cells. BV2 cells were seeded in a 6 well plate at the density of 6 × 10^5 cells/well overnight and cells were treated as mentioned earlier in the cell treatment section and this time treatment was performed for 6 h only. After 6 h, cells were harvested and lysed with lysis buffer containing (RIPA, protease inhibitor & phosphatase inhibitor), protein estimation was performed using biorad assay and the 30 µg of total protein was separated by 8% SDS-PAGE gel electrophoresis, transferred to nitrocellulose membranes, and incubated with primary antibodies against tubulin, iNOS, COX-2, and α-tubulin. […] membranes were incubated with horseradish peroxidase-conjugated secondary antibodies, and protein bands were visualized using ECL Western Blotting Detection Reagents (Amersham Pharmacia Biotech). Quantitative analysis of the protein bands was quantified using Image Master 2D Elite software (version 3.1, Amersham Pharmacia Biotech).

AMPK(A1/B1/G2) = molecular target: T14, AMPK(A1/B1/G2) (Homo sapiens, UniProt Q13131); assay: Kinase panel assay (radiolabelled); type: biochemical; settings: 30 μM compound, ATP 10 μM; duplicates Data 1/Data 2
T14 construct: purchased Reaction Biology Corp

[5] = read-out: % Enzyme Activity (relative to DMSO controls)

Structure (SMILES): O=C1C=CC2(C=C1)OCC(Cc1cc(C(F)(F)F)cc(C(F)(F)F)c1)C(=O)N2c1ccccc1 (racemic) [1c]
- % Residual Activity at 30 μM (JNK1): 35.8 ± 0.3%
- % Residual Activity at 30 μM (CDK1/cyclin B): 46.0 ± 0.8%
- % Residual Activity at 30 μM (ROCK1): 97 ± 2.9%
- % Residual Activity at 30 μM (ARK5/NUAK1 [1]): 70.8 ± 0.1%

Structure (SMILES): O=C1C=CC2(C=C1)OCC(Cc1cn(-c3cccc(Cl)c3)nn1)C(=O)N2c1ccccc1 (centres unmarked) [2d, 3-((1-(3-Chlorophenyl)-1H-1,2,3-triazol-4-yl)methyl)-5-phenyl-1-oxa-5-azaspiro[5.5]undeca-7,10-diene-4,9-dione]
- % Enzyme Activity (relative to DMSO controls) (TRKA (G667C)): 101.95%
- remaining activity at 30 µM (TRKA (G667C); [5]): 103%
- % Enzyme Activity (relative to DMSO controls) (PI3K (p110a(E545K)/p85a)): 206.92%
- remaining activity at 30 µM (PI3K (p110a(E545K)/p85a); [5]): 206%
- % Enzyme Activity (relative to DMSO controls) (ARK5/NUAK1 [2]; 30 μM compound, duplicates Data 1/Data 2): 84.16%
- remaining activity at 30 µM (ARK5/NUAK1 [2]; 30 μM compound, duplicates Data 1/Data 2, read-out: % Enzyme Activity (relative to DMSO controls)): 93.6%
- remaining activity at 30 µM (ARK5/NUAK1 [2]; 30 μM, average ± SD, read-out: % Residual Activity at 30 μM): 88.9 ± 6.7%
- % Enzyme Activity (relative to DMSO controls) (PI3KC2A): 123.51%
- remaining activity at 30 µM (PI3KC2A; [5]): 122%
- % Enzyme Activity (relative to DMSO controls) (PIP5K1A): 84.84%
- remaining activity at 30 µM (PIP5K1A; [5]): 86%
- % Enzyme Activity (relative to DMSO controls) (PI3KC3): 98.59%
- remaining activity at 30 µM (PI3KC3; [5]): 99.8%
- % Enzyme Activity (relative to DMSO controls) (PI4K2A): 74.47%
- remaining activity at 30 µM (PI4K2A; [5]): 75.9%
- % Enzyme Activity (relative to DMSO controls) (PIP5K1C): 87.90%
- remaining activity at 30 µM (PIP5K1C; [5]): 88.2%
- remaining activity at 30 µM (AMPK(A1/B1/G3) [3]): 101%
- % Enzyme Activity (relative to DMSO controls) (AMPK(A1/B1/G3) [4]): 100.85%
- iNOS expression level (iNOS; 0.01 to 1 uM, LPS-induced BV-2 cells): downregulated iNOS and COX-2 more efficiently than compound 2a
- potency relative to L-NMMA (iNOS; regulation of iNOS and COX-2, LPS-induced BV-2 cells): 20 fold
- % Enzyme Activity (relative to DMSO controls) (AMPK(A1/B1/G2)): 66.48%
